Consider 15 compounds from patent publication US20260001914A1, “MACROCYCLIC PEPTIDES TARGETING KRAS” (Merck Sharp & Dohme LLC, priority 2022, published 2026).

For orientation: EC50 means the concentration needed to bring the measured effect to its halfway point.

*1 amine or outer side, *2 acyl side, *3 side chain or, on linkers, in order; H or OH if unused. Where a SMILES comes first, the peptide text is derived from it. Bridges are numbered along the chain shown (N, C = ends). [ ]: non-standard residue; d: D form. NMeNva(5-imidazol-1-yl) = CN[C@@H](CCCn1ccnc1)C(=O)O; Phe(4-guanidino) = N=C(N)Nc1ccc(C[C@H](N)C(=O)O)cc1; X59 = O=C([C@H](Cc1ccc(CN2CCCC2)cc1)N[*:1])[*:2]; Phe(3,4-Cl2) = N[C@@H](Cc1ccc(Cl)c(Cl)c1)C(=O)O; X77 = O=C([C@H](Cc1cnn(C2CCOCC2)c1)N[*:1])[*:2]; Ala(pyrimidin-5-yl) = N[C@@H](Cc1cncnc1)C(=O)O; Ala(thiazol-2-yl) = N[C@@H](Cc1nccs1)C(=O)O; NMe3Pal(5-F) = CN[C@@H](Cc1cncc(F)c1)C(=O)O; X3 = CN([C@@H](Cc1cncnc1)C(=O)[*:2])[*:1]; X30 = O=C([C@H](Cc1ncccc1F)N[*:1])[*:2]; X32 = CS(=O)(=O)CCCN(CC(=O)[*:2])[*:1]; X35 = CN([C@@H](CCCF)C(=O)[*:2])[*:1]; Phe(2-F) = N[C@@H](Cc1ccccc1F)C(=O)O; NMe3Pal = CN[C@@H](Cc1cccnc1)C(=O)O; X1 = O=C(C12CC(CN[*:1])(C1)C2)[*:2]; X56 = O=C(C12CC(N[*:1])(C1)C2)[*:2]; X17 = O=C([C@H](CCCCF)N[*:1])[*:2]; Ala(cPr) = N[C@@H](CC1CC1)C(=O)O; NMeF = CN[C@@H](Cc1ccccc1)C(=O)O; PhLac = O=C(O)[C@@H](O)Cc1ccccc1; 3Pal = N[C@@H](Cc1cccnc1)C(=O)O; d3Pal = N[C@H](Cc1cccnc1)C(=O)O; Ahp(2) = CCCCC[C@H](N)C(=O)O; Cba = N[C@@H](CC1CCC1)C(=O)O; hLeu = CC(C)CC[C@H](N)C(=O)O; αMeC = C[C@](N)(CS)C(=O)O; NMeA = CN[C@@H](C)C(=O)O; Nle = CCCC[C@H](N)C(=O)O; AEEA = NCCOCCOCC(=O)O

In this experiment the target is KRAS-G12D protein (Homo sapiens, UniProt P01116, G12D). As to the kind of experiment: SOS-mediated nucleotide exchange assay (BODIPY-GDP / Tb-streptavidin TR-FRET). In kind it is biochemical. On the technique in general: In TR-FRET formats the signal depends on donor and acceptor labels being close together.
Chain of KRAS-G12D protein (P01116 1-188 isoform P01116-2 G12D): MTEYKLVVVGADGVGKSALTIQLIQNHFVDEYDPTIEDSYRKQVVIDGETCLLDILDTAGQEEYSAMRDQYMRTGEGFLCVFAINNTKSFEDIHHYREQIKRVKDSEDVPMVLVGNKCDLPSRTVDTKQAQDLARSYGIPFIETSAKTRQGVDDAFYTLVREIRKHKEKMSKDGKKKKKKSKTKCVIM
Consider `C[C@H]1C(=O)N[C@@H](Cc2cncnc2)C(=O)N[C@@H](CCCCF)C(=O)N[C@@H](Cc2ccccc2F)C(=O)N[C@@H](CCCCF)C(=O)N(C)[C@@H](Cc2ccccc2)C(=O)NCC23CC(C2)(C3)C(=O)O[C@@H](Cc2ccccc2)C(=O)N1C` [compound 128, cyclo(FLac-NMeA-PyrimAla-NleF-Phe2F-NleF-NMeF-amBCP)] (cyclo([NMeA][Ala(pyrimidin-5-yl)][X17][Phe(2-F)][X17][NMeF][X1][PhLac])), for which the EC50 turned out to be 37.4 nM.

In turn, `CCCC[C@@H]1NC(=O)[C@H](Cc2nccs2)NC(=O)[C@H](C)N(C)C(=O)[C@H](Cc2ccccc2)OC(=O)C23CC(CNC(=O)[C@H](Cc4ccccc4)N(C)C(=O)[C@H](CCCC)NC(=O)[C@H](Cc4ccccc4F)NC1=O)(C2)C3` [compound 320, cyclo(FLac-NMeA-2TzA-Nle-Phe2F-Nle-NMeF-amBCP)] (cyclo([NMeA][Ala(thiazol-2-yl)][Nle][Phe(2-F)][Nle][NMeF][X1][PhLac])) registered an EC50 of 4360 nM.

Consider `CCCC[C@@H]1NC(=O)[C@H](Cc2ccc(O)cc2)NC(=O)[C@H](CC(C)C)NC(=O)[C@H](Cc2ccc(NC(=N)N)cc2)NC(=O)[C@H](CCCNC(=N)N)NC(=O)[C@H](Cc2ccccc2)NC(=O)CSC[C@@H](C(N)=O)NC(=O)[C@H](Cc2ccccc2)N(C)C1=O` [compound 45, cyclo(F-R-Phe4Gn-L-Y-Nle-NMeF-Cl-ClAc)] ({CH2CO}-FR[Phe(4-guanidino)]LY[Nle][NMeF]C-NH2; thioether N-8), for which the EC50 stood at 12.6 nM. This EC50 is about 350-fold lower than that of the compound before.

Compound `CCCC[C@@H]1NC(=O)[C@H](Cc2ccc(Cl)c(Cl)c2)NC(=O)[C@H](C)N(C)C(=O)[C@H](Cc2ccccc2)OC(=O)C23CC(CNC(=O)[C@H](Cc4ccccc4)N(C)C(=O)[C@H](CCCC)NC(=O)[C@H](Cc4ccccc4F)NC1=O)(C2)C3` [compound 309, cyclo(FLac-NMeA-Phe34Cl2-Nle-Phe2F-Nle-NMeF-amBCP)] (cyclo([NMeA][Phe(3,4-Cl2)][Nle][Phe(2-F)][Nle][NMeF][X1][PhLac])) registered an EC50 of 108 nM.

In the case of `CC(C)CC[C@@H]1NC(=O)[C@H](Cc2ccccc2F)NC(=O)[C@H](CC2CC2)NC(=O)[C@H](Cc2cncnc2)NC(=O)[C@H](C)N(C)C(=O)[C@H](Cc2ccccc2)OC(=O)C23CC(CNC(=O)[C@H](Cc4cncc(F)c4)N(C)C1=O)(C2)C3` [compound 282, cyclo(FLac-NMeA-PyrimAla-cPrA-Phe2F-hL-NMe3Pal5F-amBCP)] (cyclo([Ala(cPr)][Phe(2-F)][hLeu][NMe3Pal(5-F)][X1][PhLac][NMeA][Ala(pyrimidin-5-yl)])), the concentration giving a half-maximal response (EC50) stood at 2 nM.

With `CCCCC[C@@H]1NC(=O)[C@H](Cc2ccc(OC)cc2)NC(=O)[C@H](CC2CCC2)NC(=O)[C@H](Cc2ccc(NC(=N)N)cc2)NC(=O)CN(CCCS(C)(=O)=O)C(=O)[C@H](Cc2ccccc2)NC(=O)CSC[C@@](C)(C(N)=O)NC(=O)[C@H](Cc2ccccc2)N(C)C1=O` [compound 389, cyclo(F-Mspg-Phe4Gn-cBuA-TyrOMe-Ahp-NMeF-aMeCl-ClAc)] ({CH2CO}-F[X32][Phe(4-guanidino)][Cba]Y(Me)[Ahp(2)][NMeF][αMeC]-NH2; thioether N-8), the concentration for a half-maximal effect (EC50) was determined as 441 nM. This EC50 lies about 220-fold higher than the previous one.

Compound `CCCC[C@@H]1NC(=O)[C@H](Cc2ccccc2F)NC(=O)[C@H](CC2CCC2)NC(=O)[C@@H](Cc2cccnc2)NC(=O)[C@H](CCCNC(=N)N)NC(=O)[C@H](Cc2ccccc2)NC(=O)C23CC(C2)(C3)NC(=O)[C@H](Cc2cccnc2)N(C)C1=O` [compound 108, cyclo(F-R-d3Pal-cBuA-Phe2F-Nle-NMe3Pal-BCP)] (cyclo(FR[d3Pal][Cba][Phe(2-F)][Nle][NMe3Pal][X56])) had an EC50 of 1140 nM.

`CCCC[C@@H]1NC(=O)[C@H](Cc2cncnc2)NC(=O)[C@H](C)N(C)C(=O)[C@H](Cc2ccccc2)OC(=O)C23CC(CNC(=O)[C@H](Cc4ccccc4)N(C)C(=O)[C@H](CCCC)NC(=O)[C@H](Cc4ncccc4F)NC1=O)(C2)C3` [compound 229, cyclo(FLac-NMeA-PyrimAla-Nle-2Pal6F-Nle-NMeF-amBCP)] (cyclo([NMeA][Ala(pyrimidin-5-yl)][Nle][X30][Nle][NMeF][X1][PhLac])) yielded an EC50 of 559 nM. This EC50 lies about 2-fold lower than the previous one.

As to `CCCC[C@@H]1NC(=O)[C@H](Cc2ccc(CN3CCCC3)cc2)NC(=O)[C@H](CCCn2ccnc2)N(C)C(=O)[C@H](Cc2ccccc2)NC(=O)C23CC(CNC(=O)[C@H](Cc4cccnc4)N(C)C(=O)[C@H](CCCC)NC(=O)[C@H](Cc4ccccc4F)NC1=O)(C2)C3` [compound 263, cyclo(F-NMeNvaImid-Phe4cPyrr-Nle-Phe2F-Nle-NMe3Pal-amBCP)] (cyclo(F[NMeNva(5-imidazol-1-yl)][X59][Nle][Phe(2-F)][Nle][NMe3Pal][X1])), the EC50 was found to be 42.1 nM.

`CCCC[C@@H]1NC(=O)[C@H](Cc2ccc(C(F)(F)F)nc2)NC(=O)[C@H](CCCn2ccnc2)N(C)C(=O)[C@H](Cc2ccccc2)OC(=O)C23CC(CNC(=O)[C@H](Cc4ccccc4)N(C)C(=O)[C@H](CCCC)NC(=O)[C@H](Cc4ccccc4F)NC1=O)(C2)C3` (single isomer, unassigned) [compound 218, cyclo(FLac-NMeNvalmid-4CF33Pal-Nle-Phe2F-Nle-NMeF-amBCP)] had an EC50 of 188 nM.

Turning to `CCCC[C@@H]1NC(=O)[C@H](Cc2cccnc2)NC(=O)[C@H](C)N(C)C(=O)[C@H](Cc2ccccc2)OC(=O)C23CC(CNC(=O)[C@H](Cc4cncnc4)N(C)C(=O)[C@H](CCCC)NC(=O)[C@H](Cc4ccccc4F)NC1=O)(C2)C3` [compound 401, cyclo(FLac-NMeA-3Pal-Nle-Phe2F-Nle-NMeAlaPyrim-amBCP)] (cyclo([3Pal][Nle][Phe(2-F)][Nle][X3][X1][PhLac][NMeA])), a half-maximal effect (EC50) was put at 29 nM.

As for `CCCCC[C@@H]1NC(=O)[C@H](Cc2ccc(O)cc2)NC(=O)[C@H](CC(C)C)NC(=O)[C@H](Cc2ccc(O)cc2)NC(=O)[C@H](CCCNC(=N)N)NC(=O)[C@H](Cc2ccccc2)NC(=O)CSC[C@@H](C(=O)NCCOCCOCC(N)=O)NC(=O)[C@H](Cc2ccccc2)N(C)C1=O` [compound 57, cyclo(F-R-Y-L-Y-Ahp-NMeF-C3-ClAc)] ({CH2CO}-FRYLY[Ahp(2)][NMeF]C[AEEA]-NH2; thioether N-8), the EC50 is 482 nM.

As for `CCC[C@@H]1NC(=O)[C@H](Cc2ccc(O)cc2)NC(=O)[C@H](CC(C)C)NC(=O)[C@H](Cc2ccc(O)cc2)NC(=O)[C@H](CCCNC(=N)N)NC(=O)[C@H](Cc2ccccc2)NC(=O)CCCNC(=O)[C@H](Cc2ccccc2)N(C)C1=O` [compound 161, cyclo(F-R-Y-L-Y-Nva-NMeF-C4NH2acid)], the concentration giving a half-maximal response (EC50) was 2840 nM.

For `CCCC[C@@H]1NC(=O)[C@H](Cc2cccnc2)NC(=O)[C@H](CCCF)N(C)C(=O)[C@H](Cc2ccccc2)OC(=O)C23CC(CNC(=O)[C@H](Cc4cccnc4)N(C)C(=O)[C@H](CCCC)NC(=O)[C@H](Cc4ccccc4F)NC1=O)(C2)C3` [compound 239, cyclo(FLac-NMeNvaF-3Pal-Nle-Phe2F-Nle-NMe3Pal-amBCP)] (cyclo([3Pal][Nle][Phe(2-F)][Nle][NMe3Pal][X1][PhLac][X35])), the EC50 came out at 297 nM.

As to `CCCC[C@@H]1NC(=O)[C@H](Cc2cnn(C3CCOCC3)c2)NC(=O)[C@H](C)N(C)C(=O)[C@H](Cc2ccccc2)OC(=O)C23CC(CNC(=O)[C@H](Cc4ccccc4)N(C)C(=O)[C@H](CCCC)NC(=O)[C@H](Cc4ccccc4F)NC1=O)(C2)C3` [compound 308, cyclo(FLac-NMeA-AlaPyzlTHP4-Nle-Phe2F-Nle-NMeF-amBCP)] (cyclo([NMeA][X77][Nle][Phe(2-F)][Nle][NMeF][X1][PhLac])), the concentration for a half-maximal effect (EC50) is 6.86 nM.
